{
  "source": "paper PMC3828196",
  "about": "(PLoS ONE, 2013)",
  "key": {"EcDsbA": {"biological_target": "T1, EcDsbA (Escherichia coli, UniProt P0AEG4)", "T1 construct": "lacking the periplasmic leader signal were purified as described for KpDsbA; His6-TEV leader (inferred: same procedure as KpDsbA) (N, cleaved yes); made in house; host or cells: E. coli BL21(DE3)pLys (inferred from 'as described for KpDsbA')", "T1 sequence (P0AEG4 20-208)": "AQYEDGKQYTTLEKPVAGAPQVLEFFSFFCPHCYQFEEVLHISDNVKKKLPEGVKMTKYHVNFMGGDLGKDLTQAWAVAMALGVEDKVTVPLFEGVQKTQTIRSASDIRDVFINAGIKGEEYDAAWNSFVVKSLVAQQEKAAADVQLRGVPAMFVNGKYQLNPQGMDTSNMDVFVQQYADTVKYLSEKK", "assay": "biochemical", "format": "binding, E. coli", "conditions": "ITC; range stated for KpDsbA and EcDsbA with […] and […] together; read-out: Kd (range over both peptides and both DsbAs)", "experimental": "(§1) Amidation and acetylation ensure that there are no charges on the peptide termini, as these are not present in the native DsbB loop sequence. Binding affinity was measured using a MicroCal™ Auto-iTC200 from (GE Healthcare, USA) at 25 °C. The sample cell was loaded with 200 μL of 100 μM KpDsbA or EcDsbA in 25 mM HEPES, 50 mM NaCl, pH 7.4, and DMSO 0.8 %. The peptide (3 mM) diluted in the same buffer was titrated with an initial injection of 0.5 μL into DsbA, followed by 19 consecutive injections (2.0 μL) offset by 180 s, while the solution was constantly stirred (1000 rpm). Data were fitted to a single-site binding model using MicroCal™ Origin 7.0 software (Origin 7 SR4 v7.0552)."}, "KpDsbA": {"biological_target": "KpDsbA", "assay": "ITC binding of DsbB-derived peptides to KpDsbA", "set-up": "species or system K. pneumoniae", "experimental": "as §1, with “v7.0552). Experiments were conducted in triplicate and affinity and thermodynamic parameters are reported as means and standard deviations (Table 4).” for “v7.0552).”"}},
  "note": "Where two headings read alike, the source gives them in different places.",
  "data": [
    {"compound": "CC(=O)N1CCC[C@H]1C(=O)N[C@@H](CO)C(=O)N1CCC[C@H]1C(=O)N[C@@H](Cc1ccccc1)C(=O)N[C@@H](CCC(N)=O)C(=O)N[C@H](C(=O)N[C@@H](CS)C(=O)N[C@@H](CC(=O)O)C(N)=O)[C@@H](C)O", "values": [
      {"measurement": "Kd", "setting": "EcDsbA", "value": "11 to 18", "unit": "µM"},
      {"measurement": "Kd", "setting": "KpDsbA; ITC (Auto-iTC200), cell 100 μM KpDsbA, peptide 3 mM, 25 mM HEPES, 50 mM NaCl, pH 7.4, DMSO 0.8 %, 25 °C in method, 20 °C in table footnote, single-site model, apparent Kd, mean ± SD, three independent experiments, read-out: Kd", "value": "16.7 ± 0.6", "unit": "µM"},
      {"measurement": "Kd", "setting": "KpDsbA; ITC, range stated for KpDsbA and EcDsbA with PSPFATCD and PSPFQTCD together, read-out: Kd (range over both peptides and both DsbAs)", "value": "11 to 18", "unit": "µM"}
    ]}
  ]
}
